Measurements: patent US7323494B2, “Compounds and methods” (SmithKline Beecham Corporation, priority 2002, dated 2008)

Assays:
[1] = molecular target: T1, LXRα ligand binding domain (Homo sapiens, UniProt Q13133); test: Ligand Sensing Assay for LXRα agonist activity; assay type: biochemical; settings: 1 μM; over a background reading of 10000 fluorescence units
T1 construct: His tag; made in house
T1 sequence (Q13133 183-447): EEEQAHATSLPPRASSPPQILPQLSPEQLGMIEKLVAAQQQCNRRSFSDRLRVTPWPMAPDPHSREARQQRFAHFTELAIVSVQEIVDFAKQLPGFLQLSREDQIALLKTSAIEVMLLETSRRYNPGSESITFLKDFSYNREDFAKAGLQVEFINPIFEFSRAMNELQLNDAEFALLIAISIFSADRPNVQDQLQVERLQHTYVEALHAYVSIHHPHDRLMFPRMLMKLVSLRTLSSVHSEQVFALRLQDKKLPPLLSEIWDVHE
T1 sequence (Q15788 676-700 partner): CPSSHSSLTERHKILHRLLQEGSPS
Description: Test Method 2: Ligand Sensing Assay for LXRα Agonist Activity
The assay for LXRα was run according to the procedures of Test Method 1, above using his-tagged LXRα ligand binding domain (amino acids 183-447 of Genbank accession number U22662, with the 14th amino acid corrected to A from R). In this assay 1 μM 24(S),25-epoxycholesterol gave a reading of 20000 fluorescence units over a background reading of 10000 fluorescence units.

[2] = molecular target: T2, human LXRβ ligand binding domain (Homo sapiens, UniProt P55055); test: Ligand Sensing Assay (LiSA) for LXRβ agonist activity (SRC1 peptide recruitment); assay type: biochemical; settings: 1 μM; over a background reading of 10000 fluorescence units
T2 construct: made in house; host or cells: E. coli BL21 (DE3), pRSETa
T2 sequence (P55055 184-460 limits assumed): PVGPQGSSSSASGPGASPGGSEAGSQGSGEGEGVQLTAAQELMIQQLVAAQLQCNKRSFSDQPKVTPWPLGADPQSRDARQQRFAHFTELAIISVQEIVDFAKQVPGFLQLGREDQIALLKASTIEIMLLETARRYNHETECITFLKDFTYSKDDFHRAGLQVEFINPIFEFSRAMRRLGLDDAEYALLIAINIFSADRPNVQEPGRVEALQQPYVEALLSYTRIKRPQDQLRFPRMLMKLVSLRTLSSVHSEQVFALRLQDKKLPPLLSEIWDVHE
T2 sequence (Q15788 676-700 partner limits assumed): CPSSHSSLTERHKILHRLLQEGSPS
From the text: Test Method 1: Ligand Sensing Assay (LiSA) for LXRβ Agonist Activity
This assay measures the recruitment of a peptide derived from the coactivator protein, SRC1, to the agonist-bound LXR[…]. Peptides derived from other nuclear receptor cofactors may be similarly prepared and assayed.
To generate the human LXRβ ligand binding domain suitable for LISA, a modified polyhistidine tag (MKKGHHHHHHG) (SEQ ID No. 1) was fused in frame to the human LXRβ ligand binding domain (amino acids 185-461 of Genbank accession number U07132) and subcloned into the expression vector pRSETa (Invitrogen) under the control of an IPTG inducible T7 promoter. The human LXRβ ligand binding domain was expressed in E. coli strain BL21 (DE3). Ten-liter fermentation batches were grown in Rich PO4 media with 0.1 mg/mL Ampicillin at 25° C. for 12 hours, cooled to […] and held at that temperature for 36 hours to a density of OD600=14. […]
Typically 25-50 g of cell paste is resuspended in 250-500 mL TBS, pH 8.0 (25 mM Tris, 150 mM NaCl). […] After washing to baseline absorbance with equilibration buffer, the column is washed with approximately one column volume of TBS pH-8.0 containing 95 mM imidazole. […] After washing to baseline absorbance with the dilution buffer the protein is eluted with a gradient from 50-500 mM NaCl. […]

In the case of C[C@H](CC[C@@H]1OC1(C)C)[C@H]1CC[C@H]2[C@@H]3CC=C4C[C@@H](O)CC[C@]4(C)[C@H]3CC[C@]12C [24(S),25-epoxycholesterol], the “reading (fluorescence units)” value [1] is reported as 20000 fluorescence units and the “reading (fluorescence units)” value [2] is reported as 20000 fluorescence units.
